Experimental data taken from US20180250309A1, “METHODS FOR TREATMENT OF MONOCYTE DYSFUNCTION AND CHRONIC INFLAMMATORY MICRO AND MACRO-VASCULAR DISEASES” (THE BOARD OF REGENTS OF THE UNIVERSITY OF TEXAS SYSTEM, priority 2015, published 2018).
Like-named read-outs stand apart in the source and are kept apart here.

What was measured:
[1] = test system: THP-1 monocytes; assay: Monocyte chemotaxis of metabolically primed THP-1 monocytes towards MCP-1 (modified Boyden chamber); type: cell-based, Human; conditions: for monocyte chemotaxis: primed with glucose and LDL, 1 nM MCP-1, FIG. 2; for normal or baseline responses to chemokines: unprimed, non-pathogenic chemotaxis
Method: (§1) Chemotaxis assays are performed using 48-well, modified Boyden chambers (NeuroProbe, Gaithersburg, Md.) as described previously (1). Briefly, monocytes are primed with glucose and LDL in the presence of UA, 23-OHUA or vehicle (0.1% DMSO). Cells are loaded into upper wells of the chemotaxis chamber. Lower wells contain cell media with 1 nM MCP-1 (R&D Systems, Minneapolic, Minn.) or vehicle. A 5 μm polyvinyl pyrrolidone-free polycarbonate filter membrane is layered between the upper and lower chambers, and the chamber is incubated for 1.5 h for THP-1 monocytes at 37° C. and 5% CO2. The membrane is washed and cells removed from the upper side of the filter and fixed with methanol. Transmigrated are stained with 1 μM propidium iodide. Fluorescence intensity, which correlates with cell number is quantified with KODAK Image Station 4000MM (Carestream, Rochester, N.Y.).
Cell Culture/Priming. Human monocytic THP-1 cells (ATCC) were cultured in THP-1 medium (RPMI 1640, 5 mM glucose, 10% fetal bovine serum (FBS), 2% glutamax, 1% penicillin/streptomycin, 1% HEPES, 0.1% β-mercaptoethanol). Cells are spun down at 400 g, 5 minutes at 25° C. and resuspended in media at […]. Following 48 hours at 37° C. and 5% CO2, cells are plated in 12-well cell culture plates. Phytochemicals are solubilized in dimethylsulfoxide (DMSO) and are added to suspended THP-1 cells at concentrations from 0.03 μM to 3 μM. Control cells without phytonutrients are treated with 0.1% DMSO. Cytotoxicity was assessed with a trypan exclusion assay. To induce a metabolically stressed condition (priming), cells were treated with freshly isolated human LDL is added (100 μg/ml) along with D-glucose (20 mM) for 24 hours.
as §1, with “Chemotaxis. Chemotaxis” for “Chemotaxis”, “(Ullevig et al. Redox Biology. 2014 01/03;2:259-66).” for “(1).”, “islayered” for “is layered”

[2] = test system: Nox4; assay: Induction of Nox4 in monocytes under metabolic stress; type: cell-based
Description: The inventor has elucidated the mechanism through which hypercholesterolemia and hyperglycemia promote monocyte dysfunction. Monocyte dysfunction is induced by metabolic disorders via the pathological induction of Nox4.

[3] = Solubility / hydrophilicity relative to ursolic acid; type: physicochemical
[4] = test system: diabetic atherosclerosis; assay: Dietary supplementation in diabetic mice: monocyte dysfunction, macrophage recruitment, atherosclerosis; type: in vivo

Compound | monocyte priming by metabolic stress (hypersensitization to chemokine-induced activation) [1] | monocyte chemotaxis [1] | normal or baseline responses to chemokines [1] | induction of Nox4 [2] | monocyte dysfunction [2] | hydrophilicity relative to UA [3] | solubility compared with ursolic acid [3] | atherosclerosis [4] | monocyte dysfunction and macrophage recruitment [4] | atherosclerosis ([4]; listed as ursolic acid)
CC1CCC2(C(=O)O)CCC3(C)C(=CCC4C5(C)CCC(O)C(C)(CO)C5CCC43C)C2C1C (stereo not drawn) [23-OH UA, 3β, 23-dihydroxyurs-12-en-28oic acid] | inhibit | reducing monocyte chemotaxis | do not block or affect normal or baseline responses to chemokines | prevents the induction of Nox4 | prevents | more hydrophilic | more soluble | – | – | –
C[C@H]1[C@H](C)CC[C@]2(C(=O)O)CC[C@]3(C)C(=CC[C@@H]4[C@@]5(C)CC[C@H](O)C(C)(C)[C@@H]5CC[C@]43C)[C@H]12 [UA, Ursolic acid] | inhibit | reducing monocyte chemotaxis | do not block or affect normal or baseline responses to chemokines | prevent the induction of Nox4 | – | – | – | potent inhibitor of diabetic atherosclerosis | attenuates monocyte dysfunction and macrophage recruitment | protects diabetic mice from atherosclerosis
